According to patent US11052154B2, “Ras protein degradation inducing molecule and pharmaceutical composition” (Tokyo University of Science Foundation, priority 2016, dated 2021):

Molecular target: T1, wild-type K-Ras protein (Homo sapiens, UniProt P01116)
T1 construct: expressed in transfected cells; host or cells: HeLa
Test: Degradation (knockdown) of wild-type K-Ras protein forcibly expressed in HeLa cells, FACS analysis
Assay type: cell-based
Settings: FIG. 1
Method: In Example 2, degradation (knockdown) of a wild-type K-Ras protein forcibly expressed in HeLa cells (human cervical cancer cells) through TUS-007 was evaluated by FACS analysis. […] The full-length cDNA clone (Accession No. AK292510) of a human K-ras gene was purchased from Independent Administrative Institution, the National Institute of Technology and Evaluation. PCR amplification was performed using KOD-Plus-Neo (TOYOBO CO., LTD) as a PCR enzyme. The plasmid was introduced into HeLa cells to transiently overexpress a wild-type K-Ras protein (specifically, a fusion protein of a wild-type K-Ras protein and GFP via a HA tag) or a DsRed protein for comparison in the […] (Wako Pure Chemical Industries, Ltd.) as a transfection reagent was used to introduce the plasmid into HeLa cells by a routine procedure. […] Culture was performed for 40 hours after introduction of the plasmid, and then TUS-007 was added to HeLa cells as follows. […] A BD FACSCantoTM II (BD Biosciences) was used for flow cytometry, and the expression levels of GFP and the DsRed protein in the cells were quantified. […] The GFP/DsRed ratio per cell was computed using an analysis software FlowJoTM (TOMY Digital Biology Co., Ltd.), and degradation (knockdown) of the wild-type K-Ras protein by TUS-007 was determined from a shift in a graph.

T1 sequence (P01116 1-188 isoform P01116-2): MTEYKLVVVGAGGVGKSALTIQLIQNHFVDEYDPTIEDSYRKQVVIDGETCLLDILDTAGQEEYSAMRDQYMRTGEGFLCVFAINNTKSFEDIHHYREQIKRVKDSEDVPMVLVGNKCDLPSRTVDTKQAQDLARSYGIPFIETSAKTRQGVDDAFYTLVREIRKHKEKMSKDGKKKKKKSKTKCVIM

SMILES: CCC(C)[C@H](NC(=O)CCCCCCNC(=O)[C@H](CC(C)C)NC(=O)CNC(=O)c1cc(Cl)ccc1Cl)C(=O)Nc1ccc2[nH]c(Cc3c[nH]c4ccccc34)nc2c1 (stereo in doubt) [TUS-007]
- degradation (knockdown) of the wild-type K-Ras protein (shift of GFP/DsRed ratio graph) (24 hours after addition, vs control (DMSO)): degradation of the wild-type K-Ras protein was induced
- degradation of the wild-type K-Ras protein when both TUS-007 and MLN2238 were added (MLN2238 co-added, compared with TUS-007 alone): degradation of the wild-type K-Ras protein was inhibited
